Drawing on US4918073A, “Diarylalkyl-substituted alkylamines and medicaments containing them” (Hoechst Aktiengesellschaft, priority 1986, dated 1990), this text covers IC50 and activation for 29 molecules.

Test [1] has as its target 3H-nitrendipine binding, membrane preparation from the cortex of the rat brain. The test is described as follows: displacement of tritium-labeled nitrendipine from rat brain cortex membranes (calcium-antagonistic activity). The following applies: 3H-nitrendipine 0.1 nM, TRIS buffer pH 7.4, 25° C., 60 minutes; read-out: IC50 (displacement of 50% of the radioactively labeled nitrendipine). The method, then:
This test was carried out in a membrane preparation obtained from the cortex of the rat brain and washed several times, the method described by R. J. Gould et al. (Proc. Natl. Acad. Sci. U.S.A. 79, 3656 [1982]) essentially being used. […] The membrane fractions were separated off by vacuum filtration over Whatman-GF/F glass fiber filters and the radioactivity was measured in a liquid scintillation counter. […] The IC50 value, i.e. the concentration of test substance which is capable of displacing 50% of the radioactively labeled nitrendipine, is determined as the characteristic parameter.

In a further test the test system is isolated guineapig heart. Put plainly: coronary circulation on the isolated guineapig heart (Langendorff). The note with it: Cavia porcellus, vs control hearts; for activation at 0.0001 mg: dose 0.1 μg via feed tube; for activation at 0.0005 mg: dose 0.5 μg via feed tube. Here is the method: For this test, female heparinized (2.5 mg of heparin sodium intraperitoneally 1 hour before sacrifice) guineapigs (220-250 g) were sacrificed by a blow on the neck. Immediately after the thorax has been opened, cardiac arrest was induced by cooling the heart with icecold saline solution. The ascending aorta was catheterized and connected to a non-recirculating perfusion system (hydrostatic pressure 65 cm of H2 O) in accordance with the method of Langendorff. Exposure of the heart was folowed by a perfusion period of 30 minutes for adaptation of the heart to the isolated state. A modified Krebs-Henseleit bicarbonate solution (113.8 mM NaCl, 22.0 mM NaHCO3, 4.7 mM KCl, 1.2 mM KH2 PO4, 1.1 mM MgSO4 ×7 H2 O and 2.5 mM CaCl2 ×2 H2 O, equilibrated with 95% of O2 and 5% of CO2, pH 7.41, 38° C.) was used as the perfusate. Glucose (11 mM) and sodium pyruvate (2.0 mM) were added. The osmolality of the perfusate was kept constant by adjusting the amount of NaCl. The hearts were loaded with a resting voltage of 2 pond (p). The heart rate and contraction force were recorded isometrically and the equipment for this (Hellige GmbH, Freiburg, Germany) were calibrated to 2 p. The coronary flow was determined with the aid of a drop counter, 7 drops corresponding to 1 ml. The values stated are expressed as the percentage increase in coronary circulation after administration of the test substance in the stated dosage via a feed tube (0.1% strength solution in propanediol), based on control hearts without addition of the test substance. The following table contains some of the values measured:
(a) mean value of 28 measurements
(b) the values stated result from in each case two measurements.

[2] abbreviates: values from in each case two measurements, read-out: Increase in coronary circulation.

Molecules are shown by their SMILES. Like-named read-outs stand apart in the source and are kept apart here.

On to `Fc1ccc(C(CCCN2CCN(CCOC3CCCCC3)CC2)c2ccc(F)cc2)cc1` [Example 16, 1-[4,4-bis(4-fluorophenyl)butyl]-4-[(2-cyclohexoxy)-ethyl]piperazine], for which the IC50 in test [1] amounted to 22 nM. In the case of `Cc1ccc(OCCN2CCN(CCCC(c3ccc(F)cc3)c3ccc(F)cc3)CC2)cc1` [Example 17], in the test on isolated guineapig heart (setting [2]), the activation at 0.0001 mg is 14 to 17% and the activation at 0.0005 mg is 33 to 38%. For the same molecule, in test [1], the IC50 was 12 nM.

`Fc1ccc(C(CCCN2CCN(CCOc3cccc4ccccc34)CC2)c2ccc(F)cc2)cc1` [Example 18, 1-[4,4-bis(4-fluorophenyl)butyl]-4-[2-(1-naphthyloxy)ethyl]piperazine]: the IC50 in test [1] was determined as 48 nM.

Consider `Fc1ccc(C(CCCN2CCN(CCCCOc3cccc4cnccc34)CC2)c2ccc(F)cc2)cc1` [Example 22], for which the IC50 in test [1] was determined as 85 nM.

As for `Fc1ccc(C(CCCN2CCN(CCOc3cccc4ncccc34)CC2)c2ccc(F)cc2)cc1` [Example 28], in test [1], the IC50 was determined as 65 nM. The same measure, in the same setting: to `Fc1ccc(C(CCCN2CCC(CCOc3cccc4cnccc34)CC2)c2ccc(F)cc2)cc1` [Example 32] belongs 12 nM; to `Fc1cccc(C(CCCN2CCN(CCOc3cccc4cnccc34)CC2)c2cccc(F)c2)c1` [Example 36], 90 nM.

In the case of `CN(CCCC(c1ccc(F)cc1)c1ccc(F)cc1)C1CCN(CCOc2cccc3cnccc23)CC1` [Example 37], the IC50 in test [1] is 400 nM. Same read-out and setting: for `O=[N+]([O-])c1ccc(OCCN2CCN(CCCC(c3ccc(F)cc3)c3ccc(F)cc3)CC2)cc1` [Example 41] the value was 8.5 nM. For `COc1ccc(OCCN2CCN(CCCC(c3ccc(F)cc3)c3ccc(F)cc3)CC2)cc1` [Example 42], in the test on isolated guineapig heart (setting [2]), the activation at 0.0005 mg lay within 20 to 29%.

Take `Fc1ccc(OCCN2CCN(CCCC(c3ccc(F)cc3)c3ccc(F)cc3)CC2)cc1` [Example 45]: in the test with isolated guineapig heart (setting [2]), the activation at 0.0001 mg is 13 to 26% and the activation at 0.0005 mg lay within 38 to 57%. In addition, in test [1], the IC50 was 11 nM.

In the case of `CC(C)(C)c1ccc(OCCN2CCN(CCCC(c3ccc(F)cc3)c3ccc(F)cc3)CC2)cc1` [Example 46], in the test with isolated guineapig heart (setting [2]), the activation at 0.0001 mg was 12 to 23% and the activation at 0.0005 mg was 21 to 36%. `Fc1ccc(C(CCCN2CCN(CCOc3ccc(C(F)(F)F)cc3)CC2)c2ccc(F)cc2)cc1` [Example 50]: the activation at 0.0001 mg in the test with isolated guineapig heart (mean value of 28 measurements, read-out: Increase in coronary circulation (mean value)) amounted to 38%. The IC50 in test [1] came to 4 nM. With `NC(=O)C1CN(CCOc2ccccc2)CCN1CCCC(c1ccc(F)cc1)c1ccc(F)cc1` (centres unmarked) [Example 56], in the test on isolated guineapig heart (dose 1.0 μg via feed tube, values from in each case two measurements, read-out: Increase in coronary circulation), the activation at 0.001 mg is 40 to 65%. Also, the IC50 in test [1] is 180 nM.

Take `O=C(O)C1CN(CCCC(c2ccc(F)cc2)c2ccc(F)cc2)CCN1CCOc1cccc2ccccc12` (centres unmarked) [Example 61]: the IC50 in test [1] came to 60 nM. For `Fc1ccc(C(CCCN2CCN(CCOc3c(Cl)cccc3Cl)CC2)c2ccc(F)cc2)cc1` [Example 62], in the test on isolated guineapig heart (setting [2]), the activation at 0.0001 mg is 9 to 13%.

Turning to `CC(=O)c1cccc(OCCN2CCN(CCCC(c3ccc(F)cc3)c3ccc(F)cc3)CC2)c1` [Example 64], the IC50 in test [1] amounted to 19 nM.

Take `CC(=O)c1ccccc1OCCN1CCN(CCCC(c2ccc(F)cc2)c2ccc(F)cc2)CC1` [Example 66]: the IC50 in test [1] turned out to be 12 nM. As to `Fc1ccc(C(CCCN2CCN(CCOc3ccccc3C(F)(F)F)CC2)c2ccc(F)cc2)cc1` [Example 67], in the test on isolated guineapig heart (setting [2]), the activation at 0.0001 mg is 5 to 21% and the activation at 0.0005 mg was in the range of 23 to 35%. As to `Fc1ccc(C(CCCN2CCN(CCOc3cccc(C(F)(F)F)c3)CC2)c2ccc(F)cc2)cc1` [Example 68], the activation at 0.0001 mg in the test with isolated guineapig heart (setting [2]) lay within 20 to 29%. Besides, in test [1], the IC50 stood at 0.9 nM. Take `Fc1ccc(C(CCCN2CCN(CCOc3cc(C(F)(F)F)cc(C(F)(F)F)c3)CC2)c2ccc(F)cc2)cc1` [Example 69]: the IC50 in test [1] is 2 nM. On to `CCOC(=O)c1ccc(OCCN2CCN(CCCC(c3ccc(F)cc3)c3ccc(F)cc3)CC2)cc1` [Example 70], for which the activation at 0.0005 mg in the test on isolated guineapig heart (setting [2]) is 36 to 52%.

On to `Fc1ccc(C(CCCN2CCC(CCOc3ccc(C(F)(F)F)cc3)CC2)c2ccc(F)cc2)cc1` [Example 71], for which the IC50 in test [1] came out at 4.2 nM. On the same count and under the same terms, for `Fc1ccc(C(CCCN2CCC(CCOc3ccccc3C(F)(F)F)CC2)c2ccc(F)cc2)cc1` [Example 73] the value was 1.2 nM; for `Fc1ccc(C(CCCN2CCC(CCOc3cccc(C(F)(F)F)c3)CC2)c2ccc(F)cc2)cc1` [Example 74], 1 nM. On to `CSc1ccc(OCCN2CCN(CCCC(c3ccc(F)cc3)c3ccc(F)cc3)CC2)cc1` [Example 75], for which, in test [1], the IC50 is 9 nM. On the same count and under the same terms, to `Fc1ccc(C(CCCN2CCN(CCOc3ccc(Br)cc3)CC2)c2ccc(F)cc2)cc1` [Example 81] belongs 3.6 nM; to `CN(C)S(=O)(=O)c1ccc(OCCN2CCN(CCCC(c3ccc(F)cc3)c3ccc(F)cc3)CC2)cc1` [Example 83], 70 nM; to `Cc1cccc(C)c1NC(=O)CN1CCN(CCCC(c2ccc(F)cc2)c2ccc(F)cc2)CC1` [Lidoflazine, reference compound], 430 nM.

The IC50 is the concentration that inhibits the measured activity by half.
